Results as given in patent publication US20240327347A1, “COMPOUNDS AND METHODS FOR TREATING 5-HT2 […]” (Board of Supervisors of Louisiana State University and …, priority 2021, published 2024).

Test: structure-activity relationship for anti-inflammatory activity (FIG. 3)
Details: SAR results
From the text: The loss or modification of the 5-methoxy results in reduced efficacy in DOx/2Cx compounds.
We determined that DOx/2Cx structures with a modified or missing 5-methoxy have reduced anti-inflammatory activity (FIG. 3). […] Without wishing to be bound by theory, the 5-methoxy of the DOx/2Cx compounds can engage residues in the binding pocket similar to those that engage the 4-OH of tryptamines, although the residues engaged by tryptamines have not been elucidated because the crystal structure of a tryptamine in the 5-HT2A receptor has not yet been published. […] Thus, without wishing to be bound by theory, a water molecule also must be present there to form a hydrogen bond bridge from the oxygen to N343.
The SAR results as shown in FIG. 3 are consistent with engagement of TM6 N343 by the 5-methoxy or 4-OH of DOx/2Cx or tryptamines, respectively, through a hydrogen bond bridge with a water molecule to produce the conformational change to recruit anti-inflammatory effectors to the activated receptor.

## CN(C)CCc1c[nH]c2ccccc12 [N,N-DMT, N,N-dimethyltryptamine]
  anti-inflammatory efficacy/activity: complete loss of efficacy
